The structures appear in SMILES notation. Where only a bound is given, the exact number is not on record here.

Chain of IgE-Tb / sFcεRIα-Y131A-AF488 (P01854 whole entry N146Q/N252Q): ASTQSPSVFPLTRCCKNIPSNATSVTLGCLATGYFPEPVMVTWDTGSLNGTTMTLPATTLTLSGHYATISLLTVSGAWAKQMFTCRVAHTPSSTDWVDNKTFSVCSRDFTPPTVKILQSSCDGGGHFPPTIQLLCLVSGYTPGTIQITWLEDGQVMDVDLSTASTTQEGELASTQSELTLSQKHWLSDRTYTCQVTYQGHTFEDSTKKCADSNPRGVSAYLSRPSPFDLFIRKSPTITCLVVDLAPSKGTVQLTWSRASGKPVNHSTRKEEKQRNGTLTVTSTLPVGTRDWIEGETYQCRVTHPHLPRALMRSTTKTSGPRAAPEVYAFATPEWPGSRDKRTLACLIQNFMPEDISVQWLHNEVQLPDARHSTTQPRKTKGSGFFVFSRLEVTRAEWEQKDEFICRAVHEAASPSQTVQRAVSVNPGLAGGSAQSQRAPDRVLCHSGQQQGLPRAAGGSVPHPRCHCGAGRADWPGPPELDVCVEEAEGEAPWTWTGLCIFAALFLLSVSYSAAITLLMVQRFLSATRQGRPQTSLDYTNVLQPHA

The assay addresses IgE-Tb / sFcεRIα-Y131A-AF488 (Homo sapiens, UniProt P01854, N146Q/N252Q). Put plainly: IgE-Tb / sFcεRIα-Y131A-AF488 FRET assay (protocol for examples 234 to 501). To be noted: examples 234 to 501: compound with IgE-Tb 30 minutes before sFcεRIα-Y131A-AF488, incubated 18 hours at room temperature; read-out: Y131A FRET IC50 range. The assay is classed as binding. Here is the method:
For examples 234 to 501, the assay was conducted according to the following: Each assay reaction was conducted in a volume of 25 μl in a 384-well half-volume plate. 10 point compound serial dilutions (3-fold) were generated in DMSO at a concentration of ×50 that of the final assay concentration (FAC). Compound solutions were then prepared by diluting 10-fold in assay buffer. For the assay, 5l of diluted compound was added to 10 μl of IgE-Tb and incubated for 30 minutes before the addition of 10 μ[…]. FRET reagents FACs were 5 nM IgE-Tb, 25 nM […]. Usually the top FAC of compound in the assay was 10 μM. The final DMSO concentration was 2%. […] The maximum FRET signal (MAX) was measured in wells containing FRET reagents but no compound. The assay was incubated for 18 hours at room temperature, protected from light and evaporation, and with gentle agitation. Measurement of FRET for each well was carried out by exciting at 337 nm and measuring emission at 490/520 nm using a PHERAstar FSX plate reader (BMG Labtech). FRET ratio was calculated as follows: Emission at 520/7Emission at 490×1000. The FRET ratio was used for the data analysis. […] Z' above 0.5 was considered a good assay. Background signal (MIN) was subtracted from all wells. […] Percent inhibition was plotted against compound concentration. IC50 values for each compound were determined using four parameter logistic fit model using the XLFIT5 software package.
Take `Cc1c(Nc2nncn2[C@H]2CCc3sc(NC(=O)C4CC4)c(C(=O)NCC4CC4)c3C2)cccc1S(C)(=N)=O` (mixture of isomers) [Example 235, (5S)-2-cyclopropaneamido-N-(cyclopropylmethyl)-5-[3-({3-[imino(methyl)oxo-lambda6-sulfanyl]-2-methylphenyl}amino)-4H-1,2,4-triazol-4-yl]-4,5,6,7-tetrahydro-1-benzothiophene-3-carboxamide]: the IC50 is less than 1000 nM.

As for `CC(=O)N1CCC(C)(Nc2nncn2[C@H]2CCc3sc(NC(=O)C4CC4)c(C(=O)NCC4CC4)c3C2)C1` (mixture of isomers) [Example 238, (5S)-5-{3-[(1-acetyl-3-methylpyrrolidin-3-yl)amino]-4H-1,2,4-triazol-4-yl}-2-cyclopropaneamido-N-(cyclopropylmethyl)-4,5,6,7-tetrahydro-1-benzothiophene-3-carboxamide], the IC50 is less than 1000 nM.

Turning to `CS(=N)(=O)c1cccc(Nc2nncn2[C@H]2CCc3sc(NC(=O)C4CC4)c(C(=O)NCC4CC4)c3C2)c1` (mixture of isomers) [Example 252, (5S)-2-(cyclopropanecarbonylamino)-N-(cyclopropylmethyl)-5-[3-[3-(methylsulfonimidoyl)anilino]-1,2,4-triazol-4-yl]-4,5,6,7-tetrahydrobenzothiophene-3-carboxamide], the half-inhibitory concentration (IC50) is less than 1000 nM.

Consider `Cc1ccc(C2CC(Nc3nncn3[C@H]3CCc4sc(NC(=O)C5CC5)c(C(=O)NCC5CC5)c4C3)C2)cn1` (mixture of isomers) [Example 275, (5S)-2-(cyclopropanecarbonylamino)-N-(cyclopropylmethyl)-5-[3-[[3-(6-methyl-3-pyridyl)cyclobutyl]amino]-1,2,4-triazol-4-yl]-4,5,6,7-tetrahydrobenzothiophene-3-carboxamide], for which the IC50 was less than 1000 nM.

Take `Cn1nc(OC(F)F)cc1Nc1nncn1[C@H]1CCc2sc(NC(=O)C3CC3(F)F)c(C(=O)NCC3CC3)c2C1` (mixture of isomers) [Example 344, (5S)—N-(cyclopropylmethyl)-2-[(2,2-difluorocyclopropanecarbonyl)amino]-5-[3-[[5-(difluoromethoxy)-2-methylpyrazol-3-yl]amino]-1,2,4-triazol-4-yl]-4,5,6,7-tetrahydro-1-benzothiophene-3-carboxamide]: the IC50 is less than 1000 nM.

`Cn1nc(OC(F)F)cc1Nc1nncn1[C@H]1CCc2sc(NC(=O)[C@H]3C[C@H]3F)c(C(=O)NCC3CC3)c2C1` (mixture of isomers) [Example 348, (5S)—N-(cyclopropylmethyl)-5-[3-[[5-(difluoromethoxy)-2-methylpyrazol-3-yl]amino]-1,2,4-triazol-4-yl]-2-[[(1RS,2RS)-2-fluorocyclopropanecarbonyl]amino]-4,5,6,7-tetrahydro-1-benzothiophene-3-carboxamide]: the 50% inhibitory concentration (IC50) was less than 1000 nM.

With `Cn1nc(C(F)(F)F)cc1Nc1nncn1[C@H]1CCc2sc(NC(=O)[C@H]3C[C@H]3F)c(C(=O)NCC3CC3)c2C1` (mixture of isomers) [Example 355, (5S)—N-(cyclopropylmethyl)-2-[[(1RS,2RS)-2-fluorocyclopropanecarbonyl]amino]-5-[3-[[2-methyl-5-(trifluoromethyl)pyrazol-3-yl]amino]-1,2,4-triazol-4-yl]-4,5,6,7-tetrahydro-1-benzothiophene-3-carboxamide], the IC50 was less than 1000 nM.

For `Cn1nc(C(F)F)cc1Nc1nncn1[C@H]1CCc2sc(NC(=O)[C@H]3C[C@H]3F)c(C(=O)NCC3CC3)c2C1` (mixture of isomers) [Example 361, (5S)—N-(cyclopropylmethyl)-5-[3-[[5-(difluoromethyl)-2-methylpyrazol-3-yl]amino]-1,2,4-triazol-4-yl]-2-[[(1RS,2RS)-2-fluorocyclopropanecarbonyl]amino]-4,5,6,7-tetrahydro-1-benzothiophene-3-carboxamide], the IC50 is less than 1000 nM.

As to `Cn1nc(C(F)F)cc1Nc1nncn1[C@H]1CCc2sc(NC(=O)C3CC3(F)F)c(C(=O)NCC3CC3)c2C1` (mixture of isomers) [Example 364, (5S)—N-(cyclopropylmethyl)-2-[(2,2-difluorocyclopropanecarbonyl)amino]-5-[3-[[5-(difluoromethyl)-2-methylpyrazol-3-yl]amino]-1,2,4-triazol-4-yl]-4,5,6,7-tetrahydro-1-benzothiophene-3-carboxamide], the 50% inhibitory concentration (IC50) is less than 1000 nM.

As to `CC1CC1C(=O)Nc1sc2c(c1C(=O)NCC1CC1)C[C@@H](n1cnnc1Nc1cc(C(F)F)nn1C)CC2` (mixture of isomers) [Example 369, (5S)—N-(cyclopropylmethyl)-5-[3-[[5-(difluoromethyl)-2-methylpyrazol-3-yl]amino]-1,2,4-triazol-4-yl]-2-[(2-methylcyclopropanecarbonyl)amino]-4,5,6,7-tetrahydro-1-benzothiophene-3-carboxamide], the IC50 is less than 1000 nM.

On to `Cn1nc(C(F)F)cc1Nc1nncn1[C@H]1CCc2sc(NC(=O)C3CC3)c(C(=O)NCC3CC3(F)F)c2C1` (mixture of isomers) [Example 381, (5S)-2-(cyclopropanecarbonylamino)-N-[(2,2-difluorocyclopropyl)methyl]-5-[3-[[5-(difluoromethyl)-2-methylpyrazol-3-yl]amino]-1,2,4-triazol-4-yl]-4,5,6,7-tetrahydro-1-benzothiophene-3-carboxamide], for which the concentration for half-maximal inhibition (IC50) is less than 1000 nM.

Regarding `Cn1nc(C(F)F)cc1Nc1nncn1[C@H]1CCc2sc(NC(=O)C3CC3)c(C(=O)NCC3CC34CC4)c2C1` (mixture of isomers) [Example 384, (5S)-2-(cyclopropanecarbonylamino)-5-[3-[[5-(difluoromethyl)-2-methylpyrazol-3-yl]amino]-1,2,4-triazol-4-yl]-N-(spiro[2.2]pentan-2-ylmethyl)-4,5,6,7-tetrahydro-1-benzothiophene-3-carboxamide], the IC50 is less than 1000 nM.

With `Cn1nc(C(F)(F)F)cc1Nc1nncn1[C@H]1CCc2sc(NC(=O)[C@H]3C[C@H]3F)c(C(=O)NCC3CC3(F)F)c2C1` (mixture of isomers) [Example 396, (5S)—N-[(2,2-difluorocyclopropyl)methyl]-2-[[(1R,2R)-2-fluorocyclopropanecarbonyl]amino]-5-[3-[[2-methyl-5-(trifluoromethyl)pyrazol-3-yl]amino]-1,2,4-triazol-4-yl]-4,5,6,7-tetrahydro-1-benzothiophene-3-carboxamide], the concentration for half-maximal inhibition (IC50) was less than 1000 nM.

Regarding `Cn1nc(C(F)(F)F)cc1Nc1nncn1[C@H]1CCc2sc(NC(=O)[C@H]3C[C@H]3F)c(C(=O)NC[C@H]3C[C@H](F)C3)c2C1` (mixture of isomers) [Example 400, (5S)—N-[trans-(3-fluorocyclobutyl)methyl]-2-[[(1R,2R)-2-fluorocyclopropanecarbonyl]amino]-5-[3-[[2-methyl-5-(trifluoromethyl)pyrazol-3-yl]amino]-1,2,4-triazol-4-yl]-4,5,6,7-tetrahydro-1-benzothiophene-3-carboxamide], the IC50 was less than 1000 nM.

Turning to `Cn1nc(C(F)F)cc1Nc1nncn1[C@H]1CCc2sc(NC(=O)[C@H]3CC34CC4)c(C(=O)NCC3CC3(F)F)c2C1` (mixture of isomers) [Example 408, (5S)—N-[(2,2-Difluorocyclopropyl)methyl]-5-[3-[[5-(difluoromethyl)-2-methylpyrazol-3-yl]amino]-1,2,4-triazol-4-yl]-2-[[(2S)-spiro [2.2]pentane-2-carbonyl]amino]-4,5,6,7-tetrahydro-1-benzothiophene-3-carboxamide], the IC50 was less than 1000 nM.

`Cn1nc(C(F)F)cc1Nc1nncn1[C@H]1CCc2sc(NC(=O)[C@H]3CC34CC4)c(C(=O)NC3CC34CC4)c2C1` (mixture of isomers) [Example 411, (5S)-5-[3-[[5-(Difluoromethyl)-2-methylpyrazol-3-yl]amino]-1,2,4-triazol-4-yl]-2-[[(2S)-spiro[2.2]pentane-2-carbonyl]amino]-N-spiro[2.2]pentan-2-yl-4,5,6,7-tetrahydro-1-benzothiophene-3-carboxamide]: the half-inhibitory concentration (IC50) was less than 1000 nM.

In the case of `CCOC(=O)c1c(NC(=O)C2CC23CC3)sc2c1C[C@@H](n1cnnc1Nc1cc(C(F)F)nn1C)CC2` (mixture of isomers) [Example 417a, Ethyl (5S)-5-[3-[[5-(difluoromethyl)-2-methyl-pyrazol-3-yl]amino]-1,2,4-triazol-4-yl]-2-(spiro[2.2]pentane-2-carbonylamino)-4,5,6,7-tetrahydrobenzothiophene-3-carboxylate], the IC50 was less than 1000 nM.

In the case of `Cn1nc(OC(F)F)cc1Nc1nncn1[C@H]1CCc2sc(NC(=O)C3CC3)c(C(=O)NC3CC34CC4)c2C1` (mixture of isomers) [Example 452, (5S)-2-(cyclopropanecarbonylamino)-5-[3-[[5-(difluoromethoxy)-2-methylpyrazol-3-yl]amino]-1,2,4-triazol-4-yl]-N-spiro[2.2]pentan-2-yl-4,5,6,7-tetrahydro-1-benzothiophene-3-carboxamide], the half-maximal inhibitory concentration (IC50) was less than 1000 nM.

A word on the IC50: it is the concentration at which inhibition is half-maximal.

Values taken from patent US12018021B2 (UCB Biopharma SRL, priority 2018, dated 2024).
